Experiments:
[1] = target: T1, Serotonin 5-HT2B (Homo sapiens, UniProt P41595); experiment: Aequorin assay, Serotonin 5-HT2B; format: cell-based; settings: antagonism; CHO-K1 mAeq Gα16, Aequorin
T1 construct: expressed in transfected cells; host or cells: CHO-K1 mAeq Gα16
Experimental: (§1) Receptor […] activity assays were performed using 8′OH-2-CF3-dihydroergotamine (8′OH-2-CF3-DHE). Table 1 summarizes the cell lines (CHO-K1/HEK293 transfected with relevant human receptor) and the assays performed to detect any agonist or antagonist activity.
(§2) Aequorin assays were conducted to monitor activity for 8′OH-2CF3-dihydroergotamine (8′OH-2CF3-DHE) against the receptors indicated in Table 1 above (except for mGlu3 and mGlu5). CHO-K1 cells coexpressing mitochondrial apoaequorin and the recombinant human receptor of interest were grown to mid-log phase in culture media without antibiotics and then detached with PBS-EDTA, centrifuged and resuspended in assay buffer (DMEM/HAM's F12 with HEPES, without phenol red+0.1% BSA, protease free) at a concentration of 1×10^6 cell/mL. […]
(§3) 50 μL of the cell suspension was mixed with 50 μL of test or reference agonist in a 96-well plate. The resulting emission of light was recorded using Hamamatsu Functional Drug Screening System 6000 (FDSS 6000) luminometer. […]
(§4) To standardize the emission of recorded light (and determine of the “100% signal”) across plates and across different experiments, some wells contained 100 μM digitonin or a saturating concentration of ATP (20 μM).

[2] = tested on: NMDA (NR1/NR2A/NR2B/NR2C/NR2D); experiment: NMDA receptor channel Fluo-8 calcium FLIPR assay; format: cell-based, human; settings: HEK293, Fluo-8 calcium FLIPR, agonist and antagonist assessment
Experimental: Studies for NMDA receptors, NR1, NR2A, NR2B, NR2C, NR2D receptor, were conducted to monitor receptor activity for 8′OH-2CF3-dihydroergotamine (8′OH-2CF3-DHE) using the Fluo-8 calcium kit and a Fluorescence Imaging Plate Reader (FLIPR^TETRA™) instrument. The following channels were evaluated: Cloned NMDA receptor (NR1/NR2A) channel (encoded by the GRIN1 and GRIN2A genes, coexpressed in HEK293 cells; Cloned NMDA receptor (NR1/NR2B) channel (encoded by the GRIN1 and GRIN2B genes, coexpressed in HEK293 cells; Cloned NMDA receptor (NR1/NR2C) channel (encoded by the GRIN1 and GRIN2C genes, coexpressed in HEK293 cells; and Cloned NMDA receptor (NR1/NR2D) channel (encoded by the GRIN1 and GRIN2D genes, transiently coexpressed in HEK293 cells.
For the agonist assessment, the effect of 8′OH-2CF3-DHE was evaluated in the absence of the positive control agonist. The signal, elicited in the presence of the agonist (100 μM Glutamic acid+20 μM Glycine), was set to 100% activation and the signal in the presence of the vehicle control (Mg^2+-free HB-PS) was set to 0% activation.
For the antagonist assessment, NR1/NR2A and NR1/NR2B was activated with the positive control agonist (100 μM Glutamic acid+20 μM Glycine). The ability of 8′OH-2CF3-DHE to inhibit the signal was examined after agonist stimulation and compared to the positive control antagonist (MK-801). […]

[3] = target: T2, Calcitonin (CGRP) (Homo sapiens, UniProt O60894+Q16602); experiment: Aequorin assay, CGRP receptor; format: cell-based; settings: CHO-AEQ
T2 construct: expressed in transfected cells; host or cells: CHO-AEQ (CHO-K1 coexpressing mitochondrial apoaequorin)
T2 sequence (Q16602 23-461): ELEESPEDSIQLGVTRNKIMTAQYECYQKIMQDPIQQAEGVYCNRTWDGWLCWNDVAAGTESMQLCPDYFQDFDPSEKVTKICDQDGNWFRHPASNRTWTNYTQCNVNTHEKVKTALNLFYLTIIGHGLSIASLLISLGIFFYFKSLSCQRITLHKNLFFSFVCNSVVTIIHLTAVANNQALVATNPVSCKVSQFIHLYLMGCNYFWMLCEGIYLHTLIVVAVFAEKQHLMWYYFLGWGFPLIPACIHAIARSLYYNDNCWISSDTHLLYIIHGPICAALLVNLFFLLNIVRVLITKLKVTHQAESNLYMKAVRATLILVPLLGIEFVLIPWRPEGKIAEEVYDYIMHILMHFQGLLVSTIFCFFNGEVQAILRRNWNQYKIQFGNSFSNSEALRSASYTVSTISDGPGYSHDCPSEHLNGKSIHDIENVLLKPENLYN
T2 sequence (O60894 27-148 partner): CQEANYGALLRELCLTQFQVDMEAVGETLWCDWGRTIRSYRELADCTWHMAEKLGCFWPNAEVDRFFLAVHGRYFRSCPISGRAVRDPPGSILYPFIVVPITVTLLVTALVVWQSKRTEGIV
Experimental: as §1, §2, §3, §4

[4] = target: T3, Serotonin 5-HT2A (Homo sapiens, UniProt P28223); experiment: Aequorin assay, Serotonin 5-HT2A; format: cell-based; settings: agonism; CHO-K1 mAeq Gα16, Aequorin
T3 construct: expressed in transfected cells; host or cells: CHO-K1 mAeq Gα16
T3 sequence (P28223 whole entry): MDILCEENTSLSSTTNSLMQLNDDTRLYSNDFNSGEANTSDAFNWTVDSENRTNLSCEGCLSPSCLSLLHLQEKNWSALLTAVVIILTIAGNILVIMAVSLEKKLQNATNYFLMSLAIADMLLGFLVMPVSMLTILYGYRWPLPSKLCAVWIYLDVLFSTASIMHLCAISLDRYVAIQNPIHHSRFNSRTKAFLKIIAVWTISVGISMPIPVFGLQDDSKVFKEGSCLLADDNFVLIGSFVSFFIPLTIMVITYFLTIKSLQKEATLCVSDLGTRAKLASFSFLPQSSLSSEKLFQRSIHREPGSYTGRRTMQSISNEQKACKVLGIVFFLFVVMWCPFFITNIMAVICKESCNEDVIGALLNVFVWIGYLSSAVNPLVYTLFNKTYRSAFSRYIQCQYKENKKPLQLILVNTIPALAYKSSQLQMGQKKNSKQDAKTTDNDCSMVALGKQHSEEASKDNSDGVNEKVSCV
Experimental: as §1, §2, §3, §4

[5] = target: T4, Adrenergic α2B (Homo sapiens, UniProt P18089); experiment: GTPγ[35S] assay, Adrenergic α2B; format: biochemical; settings: antagonism, CHO-K1 membranes, read-out: Activity (Antagonism: IC50), Adrenergic a2B
T4 construct: expressed in transfected cells; host or cells: CHO-K1 (membrane extracts)
T4 sequence (P18089 whole entry): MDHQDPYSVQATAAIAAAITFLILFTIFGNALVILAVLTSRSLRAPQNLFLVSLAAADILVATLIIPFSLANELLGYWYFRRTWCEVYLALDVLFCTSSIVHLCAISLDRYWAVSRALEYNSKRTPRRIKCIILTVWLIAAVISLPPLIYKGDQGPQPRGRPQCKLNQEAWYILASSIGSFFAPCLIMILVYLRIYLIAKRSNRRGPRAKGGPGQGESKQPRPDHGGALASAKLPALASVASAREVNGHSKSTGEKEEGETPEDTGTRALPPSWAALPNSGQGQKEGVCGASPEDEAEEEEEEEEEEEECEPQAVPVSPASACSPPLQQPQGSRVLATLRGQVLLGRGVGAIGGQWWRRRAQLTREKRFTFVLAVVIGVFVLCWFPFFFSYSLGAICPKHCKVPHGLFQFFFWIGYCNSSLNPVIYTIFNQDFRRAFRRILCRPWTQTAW
Experimental: as §1
GTPγS studies were conducted to monitor agonist activity for 8′OH-2CF3-dihydroergotamine (8′OH-2CF3-DHE) against the receptors indicated in Table 1 above. Reagents used were the following: Assay buffer (20 mM HEPES, pH 7.4; 100 mM NaCl; 10 μg/mL saponin; 30 mM MgCl2); Membranes (recombinant human receptor membrane extracts were thawed on ice and diluted in assay buffer to give 1000 μg/mL ([…]) and kept on ice); GDP (diluted in assay buffer to give 30 μM solution (3 μM final concentration); beads (PVT-WGA (Amersham, RPNQ001), diluted in assay buffer at 25 mg/mL (0.25 mg/10 μL)); GTPγ^35S (Perkin Elmer, NEG030X), diluted in assay buffer to give 0.1 nM (final concentration); and ligand (agonist/antagonist diluted in assay buffer).
Membranes were mixed with GDP (1:1) and incubated for at least 15 minutes on ice. In parallel GTPγ^35S was mixed with the beads (1:1) just before starting the reaction. […] The plates were then centrifuged for 10 minutes at 2000 rpm and incubated at room temperature for 1 hour and counted for 1 min/well with a Perkin Elmer TopCount reader.

[6] = tested on: VIP/PACAP (PAC1/VPAC1/VPAC2); experiment: Aequorin assay, VIP/PACAP receptors; format: cell-based, human; settings: CHO-AEQ
Experimental: as §1, §2, §3, §4

T1 sequence (P41595 whole entry): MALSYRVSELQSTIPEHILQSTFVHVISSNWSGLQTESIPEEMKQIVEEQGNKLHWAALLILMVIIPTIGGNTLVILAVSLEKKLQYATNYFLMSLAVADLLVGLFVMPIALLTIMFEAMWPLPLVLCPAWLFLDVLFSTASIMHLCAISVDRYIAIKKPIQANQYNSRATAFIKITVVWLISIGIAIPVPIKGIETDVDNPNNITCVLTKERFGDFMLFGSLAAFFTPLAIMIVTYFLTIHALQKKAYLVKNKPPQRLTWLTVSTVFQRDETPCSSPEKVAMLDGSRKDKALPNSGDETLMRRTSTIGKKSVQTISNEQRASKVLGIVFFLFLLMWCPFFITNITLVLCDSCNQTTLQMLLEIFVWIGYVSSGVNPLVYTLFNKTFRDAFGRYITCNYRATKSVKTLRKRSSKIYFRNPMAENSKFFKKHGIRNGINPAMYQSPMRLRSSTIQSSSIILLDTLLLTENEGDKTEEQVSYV

With `CN1C[C@H](C(=O)N[C@]2(C)O[C@@]3(O)[C@@H]4CC[C@@H](O)N4C(=O)[C@H](Cc4ccccc4)N3C2=O)C[C@@H]2c3cccc4[nH]c(C(F)(F)F)c(c34)C[C@H]21` [8′OH-2-CF3-DHE, 8′-Hydroxy-2-CF3-dihydroergotamine] the IC50 [1] was 88.2 nM, the “Activity (Agonism: EC50; Antagonism: IC50), NMDA (NR1/NR2A/NR2B/NR2C/NR2D)” value [2] was “Inactive” and the “Activity (Agonism: EC50; Antagonism: IC50), Calcitonin (CGRP)” value [3] was “Inactive”. The EC50 [4] was 607 nM, the IC50 [5] was 777 nM and the “Activity (Agonism: EC50; Antagonism: IC50), VIP/PACAP (PAC1/VPAC1/VPAC2)” value [6] was “Inactive”.

Source: patent US20150238487A1, “NOVEL ERGOLINE DERIVATIVES AND USES THEREOF” (MAP Pharmaceuticals, Inc., priority 2012, published 2015)
